Data reported in PMC10415494, “Ga(III) pyridinecarboxylate complexes: potential analogues of the second generation of therapeutic Ga(III) complexes?” (Journal of Biological Inorganic Chemistry, 2023).

Tests used:
Solubility (qualitative) = type: physicochemical
[1] = system: Rhizopus oryzae (R. oryzae) CCM F-8284; assay: Growth of filamentous fungi, macrodilution method on solidified PDA (colony diameter); type: cell-based; conditions: solidified potato-dextrose growth medium; read-out: IC50 R. oryzae
Method: (§1) The antimicrobial activities of gallium(III) complexes GaPic, GaDpic, GaChel, GaCldpic, free ligands (HPic, H2Dpic, H2Chel, H2Cldpic) and positive controls (cefoxitin (C), ampicillin (A) and piperacillin (P)) were evaluated by macrodilution method using G^+ bacteria (Firmicutes) Staphylococcus aureus (S. aureus) CCM 3953 (Czech Collection of Microorganisms), G^− bacteria (γ-proteobacteria) Escherichia coli (E. coli) CCM 3988, Pseudomonas aeruginosa (P. aeruginosa) CCM 1959 (Czech Collection of Microorganisms) and the yeast Candida parapsilosis (C. parapsilosis) ATCC 22019 (American type culture collection). Cultures of bacteria (in Mueller–Hinton broth, MHB) and yeasts (in Sabouraud’s growth medium, SB) were incubated under shaking (250 rpm) at 37 °C. The growth of bacteria and yeasts was evaluated by measuring the absorbance of the growing cultures (A590) until the cultures reached the stationary growth phase. The effects of gallium(III) complexes on the growth of filamentous fungi Rhizopus oryzae (R. oryzae) CCM F-8284, Alternaria alternata (A. alternata) CCM F-128 and Microsporum gypseum (M. gypseum) CCM F-8342 (Czech Collection of Microorganisms) were observed by macrodilution method on solidified potato-dextrose growth medium (PDA). During culturing, the diameters of growing fungal colonies were measured at regular intervals. Briefly, the antimicrobial activity (bacteria and yeasts) gallium(III) complexes/ ligands were added to the microbial culture at the beginning of the cultivation-to the lag phase. Pure gallium(III) complexes/ligands were dissolved in DMSO. The final concentration of DMSO never exceeded 1.0 vol. % neither in control nor treated samples. Concentration of gallium(III) complexes used in experimental work for evaluation of antimicrobial activity was used in the range of 0.05–2 mM, for the free ligands in the range of 0.5–2.0 mM in all experiments. […] The IC50 values were evaluated from toxicity curves. All the obtained results of antimicrobial activity were compared to the activity of Ga(NO3)3.

[2] = system: Microsporum gypseum (M. gypseum) CCM F-8342; assay: as above; type: cell-based; conditions: Filamentous fungi; solidified potato-dextrose growth medium; read-out: IC50 M. gypseum
Method: as §1

[3] = system: Alternaria alternata (A. alternata) CCM F-128; assay: as above; type: cell-based; conditions: Filamentous fungi; solidified potato-dextrose growth medium; read-out: IC50 A. alternata
Method: as §1

[4] = system: A2058 (human metastatic melanoma); assay: MTS antiproliferative assay
Method: (§2) Cell culture the cell lines A2058 (human metastatic melanoma), BLM (human metastatic melanoma), HCT116 (human colorectal carcinoma), HeLa (human cervical adenocarcinoma), Jurkat (human leukaemic T cell lymphoma). […] Cells were maintained in standard conditions with an atmosphere containing 5% CO2 at 37 °C.
(§3) The antiproliferative activity of Ga(III) complexes GaPic, GaDpic, GaChel, GaCldpic, free ligands (HPic, H2Dpic, H2Chel, H2Cldpic) and cisplatin (cisPt) were evaluated by colorimetric microculture MTS (3-(4,5-dimethylthiazol-2-yl)-5-(3-carboxymethoxyphenyl)-2-(4-sulfophenyl)-2H tetrazolium) assay (Promega, Madison, WI, USA). Cancer and non-cancer cells were seeded at density 5 × 10^3 cells/well in 96-well polystyrene microplates. Twenty-four hours after cell seeding, different concentrations (1.0—100.0 µM) of the compounds were tested. After 72 h of incubation, 10 µL of MTS was added to each well. After an additional 2 h, cell proliferation was evaluated by measuring of absorbance at wavelength 490 nm using the automated Cytation™ 3 Cell Imaging Multi-Mode Reader (Biotek, Winooski, VT, USA). The absorbance of control wells was taken as 100%, and the results were expressed as a percent of untreated control. IC50 values were calculated from MTS analyses.

[5] = system: PaTu 8902 (human pancreatic adenocarcinoma); assay: MTS antiproliferative assay
Method: as §2, §3

[6] = system: HeLa (human cervical adenocarcinoma); assay: MTS antiproliferative assay
Method: as §2, §3

[7] = system: Jurkat (human leukaemic T cell lymphoma); assay: MTS antiproliferative assay
Method: as §2, §3

[8] = system: MDA-MB-231 (human mammary gland adenocarcinoma); assay: MTS antiproliferative assay
Method: as §2, §3

[9] = system: HCT116 (human colorectal carcinoma); assay: MTS antiproliferative assay
Method: as §2, §3

[10] = system: Candida parapsilosis (C. parapsilosis) ATCC 22019; assay: Antimicrobial activity, macrodilution method (yeast, growth by A590); type: cell-based; conditions: Yeast; Sabouraud's growth medium, 37 °C; read-out: IC50 C. parapsilosis
Method: as §1

[11] = system: Pseudomonas aeruginosa (P. aeruginosa) CCM 1959; assay: Antimicrobial activity, macrodilution method (growth by A590); type: cell-based
Method: as §1

[12] = system: Staphylococcus aureus (S. aureus) CCM 3953; assay: as above; type: cell-based; conditions: Bacteria; MHB, 37 °C; DMSO max 1.0 vol. %; read-out: IC50 S. aureus
Method: as §1

[13] = system: Escherichia coli (E. coli) CCM 3988; assay: as above; type: cell-based
Method: as §1

[14] = system: human dermal fibroblasts (HDF); assay: in vitro
Method: as §2, §3

[15] = Complex stability in biological testing medium by time-dependent 1H NMR; type: physicochemical; conditions: 300 K, over 96 h
Method: Nuclear magnetic resonance (NMR) data were collected on a Varian VNMRS 600 spectrometer operating at 599.87 MHz for ^1H. The concentration of all samples was approximately 3 mg/0.6 mL of 1% DMSO-d6/D2O. For comparison, the spectra of pure acids were also measured, while the pH of the solution of acids was adjusted to the same value as the solution of the complexes. The chemical shifts were referenced to the TSP (3-(trimethylsilyl)propionic-2,2,3,3-d4 acid sodium salt) peak (^1H NMR 0.00 ppm). The NMR data were recorded at 300 K, with chemical shifts δ reported in parts per million and coupling constants J in Hertz. All data were analysed using MestReNova 12.0.0 (2017) software. The stability in 1% DMSO-d6/D2O was determined for all samples. […]

[16] = cited from earlier work
[17] = design: method as in doi:10.1002/hlca.19600430611; conditions: cited from earlier work

In the case of `O.O.O=C([O-])c1cc(Cl)cc(C(=O)[O-])n1.O=C([O-])c1cc(Cl)cc(C(=O)[O-])n1.[Ga+3].[Ga+3].[OH-].[OH-]` [GaCldpic, [Ga(Cldpic)(H2O)(OH)]2], the solubility in ethanol (Solubility (qualitative)) is reported as “slightly soluble”, the IC50 [1] is reported as greater than 2 mM and the IC50 [2] is reported as greater than 2 mM. The IC50 [3] was greater than 2 mM, the IC50 [4] was 294 ± 57.5 µM and the IC50 [5] was 437 ± 22.6 µM. The IC50 [6] was 447 ± 134 µM, the IC50 [7] was 405 ± 87 µM and the IC50 [8] was 271 ± 68.3 µM. The IC50 [9] was 404 ± 47.7 µM, the IC50 [10] was greater than 2 mM and the IC50 ([11]; Bacteria, MHB, 37 °C, DMSO max 1.0 vol. %, read-out: IC50 P. aeruginosa) was 50 µM. For the same compound, the “MIC100 (MIC) P. aeruginosa” value ([11]; growth fully inhibited (100%)) was 0.5 mM, the IC50 [12] was greater than 2 mM and the IC50 ([13]; Bacteria, MHB, 37 °C, DMSO max 1.0 vol. %, read-out: IC50 E. coli) was greater than 2 mM. For the same compound, the “partial inhibition of E. coli growth” value ([13]; concentration not given) was 30%, the IC50 [14] was 447 ± 27.6 µM and the “stability in 1% DMSO-d6/D2O solution” value [15] was “stable”.

In the case of `O=C(O)c1cccnc1` [nicotinic, nicotinic acid], the “dissociation constant pK2” value [16] is given as 4.66.

For Fe(Dpic)2, the “stability constant logβ021” value [17] is listed as 17.13.
